Assay results taken from patent US7220772B2, “Pyrazole derivatives” (Pfizer, Inc., priority 2003, dated 2007).
pIC50: −log10 of the molar value.

What was measured:
[1] = molecular target: T1, HIV-1 reverse transcriptase (Human immunodeficiency virus type 1 group M subtype B, UniProt P04585); test: Inhibition of HIV-1 Reverse Transcriptase Enzyme; assay type: biochemical; conditions: purified recombinant HIV-1 RT expressed in Escherichia Coli; [3H]-SPA or [3H]-flashplate enzyme assay; 5% final DMSO
T1 construct: purified recombinant HIV-1 reverse transcriptase (RT, EC, 2.7.7.49) obtained by expression in Escherichia Coli; made in house; host or cells: Escherichia coli
From the text: The activity of the compounds of the invention as reverse transcriptase inhibitors may be measured using the following assay.
Inhibition of HIV-1 Reverse Transcriptase Enzyme
Using purified recombinant HIV-1 reverse transcriptase (RT, EC, 2.7.7.49) obtained by expression in Escherichia Coli, a 96-well plate assay system is established for assaying a large number of samples using either the Poly(rA)-oligo(dT) Reverse Transcriptase [3H]-SPA enzyme assay system (Amersham NK9020) or the [3H]-flashplate enzyme assay system (NEN-SMP 103) and following the manufacturer's recommendations. The compounds are dissolved in 100% DMSO and diluted with the appropriate buffer to a 5% final DMSO concentration. The inhibitory activity is expressed in percent inhibition relative to DMSO control.

Row | Compound | pIC50 [1] | melting point
1 | CCc1n[nH]c(CCOc2ccc(SC)cc2)c1Oc1cc(C#N)cc(C#N)c1 [Example 1, 5-[(3-Ethyl-5-{2-[4-(methylsulfanyl)phenoxy]ethyl}-1H-pyrazol-4-yl)oxy]isophthalonitrile] | 8.70 | 
2 | CCc1n[nH]c(CCOc2ccc(S(C)(=O)=O)cc2)c1Oc1cc(C#N)cc(C#N)c1 [Example 3, 5-[(3-Ethyl-5-{2-[4-(methylsulfonyl)phenoxy]ethyl}-1H-pyrazol-4-yl)oxy]isophthalonitrile] | 7.35 | 88 to 90 °C
